Assay results reported in PMC6008489 (Bioorganic & Medicinal Chemistry, 2018).
Where two headings read alike, the source gives them in different places.

Legend:
ABL = target: T1, ABL (Homo sapiens, UniProt P00519); experiment: 26-kinase panel mobility shift assay, single concentration; format: biochemical; conditions: read-out: % Inhibition ABL
T1 construct: purchased Perkin Elmer ProfilerPro assay kit 1
Experimental: Mobility Shift Assay Protocol
(§1) Screening of 26 kinases using a mobility shift assay
(§2) A mobility shift assay to determine kinase inhibition was carried out using a
(§3) modified version of the ProfilerPro assay kit 1 (Perkin Elmer, Coventry, UK)
(§4) including MPS1 and Aurora B. Each kit contained an enzyme plate, a substrate
(§5) plate, reconstitution buffer, 1 M DTT, protease inhibitor cocktail and termination
(§6) buffer. Test compounds were added as a solution in DMSO.
(§7) peptide phosphorylation assay was carried out as per the manufacturer’s
(§8) instructions. The electrophoretic separation and analysis of the phosphorylated
(§9) and non-phosphorylated peptides was carried out on a 4-sipper chip using a
(§10) LabChip EZReader II (Perkin Elmer). Results were expressed as % inhibition of
(§11) peptide phosphorylation relative to control wells for 0 % (no test compound) and
(§12) 100 % (no ATP) inhibition. The percentage inhibition was calculated using the
(§13) % Inhibition = [1 - (% Conversion Sample / % Conversion 0% Inhibition Control)] x 100

CHK1 = target: T2, CHK1 (Homo sapiens, UniProt O14757); experiment: as above; format: biochemical; conditions: read-out: % Inhibition CHK1
T2 construct: purchased Perkin Elmer ProfilerPro assay kit 1
T2 sequence (O14757 1-476): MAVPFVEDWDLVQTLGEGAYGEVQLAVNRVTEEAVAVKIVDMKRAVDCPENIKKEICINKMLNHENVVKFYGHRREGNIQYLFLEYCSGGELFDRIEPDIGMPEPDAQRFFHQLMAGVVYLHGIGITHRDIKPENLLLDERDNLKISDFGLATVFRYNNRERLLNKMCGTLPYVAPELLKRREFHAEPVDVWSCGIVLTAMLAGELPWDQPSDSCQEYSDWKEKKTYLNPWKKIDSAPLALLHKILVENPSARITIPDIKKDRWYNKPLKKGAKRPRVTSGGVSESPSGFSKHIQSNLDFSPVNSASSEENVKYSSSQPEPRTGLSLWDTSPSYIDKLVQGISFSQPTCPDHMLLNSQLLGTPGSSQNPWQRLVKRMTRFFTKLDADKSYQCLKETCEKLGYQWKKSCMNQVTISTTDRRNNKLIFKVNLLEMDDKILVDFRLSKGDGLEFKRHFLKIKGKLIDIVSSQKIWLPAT
Experimental: as §2, §3, §4, §5, §6, §7, §8, §9, §10, §11, §12, §13

Erk1 = target: T3, Erk1 (Homo sapiens, UniProt P27361); experiment: as above; format: biochemical; conditions: read-out: % Inhibition Erk1
T3 construct: purchased Perkin Elmer (ProfilerPro assay kit 1)
Experimental: as §2, §3, §4, §5, §6, §7, §8, §9, §10, §11, §12, §13

MPS1 [1] = target: T4, MPS1 (Homo sapiens, UniProt P33981); experiment: biochemical; conditions: read-out: % Inhibition MPS1
T4 sequence (P33981 1-857): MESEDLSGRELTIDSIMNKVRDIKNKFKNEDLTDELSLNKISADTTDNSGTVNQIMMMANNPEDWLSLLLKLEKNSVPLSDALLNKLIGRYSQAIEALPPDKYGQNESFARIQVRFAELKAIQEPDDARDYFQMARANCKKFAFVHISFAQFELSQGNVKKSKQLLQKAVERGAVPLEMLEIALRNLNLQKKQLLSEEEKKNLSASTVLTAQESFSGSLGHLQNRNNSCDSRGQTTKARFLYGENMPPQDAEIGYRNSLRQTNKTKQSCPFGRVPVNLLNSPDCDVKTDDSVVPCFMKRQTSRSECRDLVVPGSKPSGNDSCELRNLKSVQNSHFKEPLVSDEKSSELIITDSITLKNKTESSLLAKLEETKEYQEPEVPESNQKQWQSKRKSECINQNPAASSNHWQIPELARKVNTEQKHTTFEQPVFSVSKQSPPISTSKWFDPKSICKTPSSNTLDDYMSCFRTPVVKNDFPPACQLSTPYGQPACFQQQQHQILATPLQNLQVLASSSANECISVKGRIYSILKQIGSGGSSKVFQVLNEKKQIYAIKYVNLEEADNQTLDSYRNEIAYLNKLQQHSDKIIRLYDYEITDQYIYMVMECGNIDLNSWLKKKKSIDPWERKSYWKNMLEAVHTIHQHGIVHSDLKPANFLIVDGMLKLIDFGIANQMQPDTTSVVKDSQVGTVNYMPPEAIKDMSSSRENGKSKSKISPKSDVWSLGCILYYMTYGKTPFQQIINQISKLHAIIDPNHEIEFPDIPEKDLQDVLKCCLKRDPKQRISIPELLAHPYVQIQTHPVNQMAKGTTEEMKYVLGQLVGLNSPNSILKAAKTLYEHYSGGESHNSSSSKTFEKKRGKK
Experimental: (§14) In order to test the biochemical activity of our fragment library, a panel of 26 structurally diverse protein kinases was used.
as §1, §2, §3, §4, §5, §6, §7, §8, §9, §10, §11, §12, §13

LCK = target: T5, LCK (Homo sapiens, UniProt P06239); experiment: 26-kinase panel mobility shift assay, single concentration; format: biochemical; conditions: read-out: % Inhibition LCK
T5 construct: purchased Perkin Elmer (ProfilerPro assay kit 1)
Experimental: as §2, §3, §4, §5, §6, §7, §8, §9, §10, §11, §12, §13

MPS1 [2] = target: T4, MPS1; format: biochemical; conditions: for Ki: calculated from mean IC50 using the Cheng-Prusoff equation; for MPS1 ligand efficiency (LE): from Ki
Experimental: IC50 values were obtained for an expanded version of the fragment library using the previously described mobility shift assay.[44] Subsequently, Ki values were estimated from IC50 values to allow better comparison of the activity against targets which were measured at different substrate concentrations (Supplementary data Table 1).
IC50 values for MPS1, Aurora A and Aurora B inhibition were determined as previously described,[44] and Ki values were estimated from the mean IC50 values using the Cheng-Prusoff equation.[48]
Kinase [ATP] (M) [Enzyme] (nM) [Peptide Substrate] (M) MgCl2 (mM)
For all compounds, IC50 values for MPS1, Aurora A, and Aurora B were determined
using MPS1 and Aurora A/B mobility shift assays as described previously.1 IC50
values were calculated from a four-parameter logistic fit of percentage inhibition
versus concentration (at 8 compound concentrations) using GraphPad Prism 5
(GraphPad Software, Inc., CA, USA). Mean IC50 values were determined from two
independent measurements each carried out in duplicate. Ki values were estimated
from the mean IC50 values using the Cheng-Prusoff equation.

PKA = target: T6, PKA (Homo sapiens, UniProt P17612); experiment: 26-kinase panel mobility shift assay, single concentration; format: biochemical; conditions: read-out: % Inhibition PKA
T6 construct: purchased Perkin Elmer (ProfilerPro assay kit 1)
Experimental: as §14
Mobility Shift Assay Protocol
as §1, §2, §3, §4, §5, §6
final concentration. […] The
as §7, §8, §9, §10, §11, §12, §13

AKT2 = target: T7, AKT2 (Homo sapiens, UniProt P31751); experiment: as above; format: biochemical; conditions: read-out: % Inhibition AKT2
T7 construct: purchased Perkin Elmer ProfilerPro assay kit 1
Experimental: as §14, §1, §2, §3, §4, §5, §6, §7, §8, §9, §10, §11, §12, §13

AurA = target: T8, AurA (Homo sapiens, UniProt O14965); experiment: as above; format: biochemical; conditions: read-out: % Inhibition AurA
T8 construct: purchased Perkin Elmer (ProfilerPro assay kit 1)
T8 sequence (O14965 1-403): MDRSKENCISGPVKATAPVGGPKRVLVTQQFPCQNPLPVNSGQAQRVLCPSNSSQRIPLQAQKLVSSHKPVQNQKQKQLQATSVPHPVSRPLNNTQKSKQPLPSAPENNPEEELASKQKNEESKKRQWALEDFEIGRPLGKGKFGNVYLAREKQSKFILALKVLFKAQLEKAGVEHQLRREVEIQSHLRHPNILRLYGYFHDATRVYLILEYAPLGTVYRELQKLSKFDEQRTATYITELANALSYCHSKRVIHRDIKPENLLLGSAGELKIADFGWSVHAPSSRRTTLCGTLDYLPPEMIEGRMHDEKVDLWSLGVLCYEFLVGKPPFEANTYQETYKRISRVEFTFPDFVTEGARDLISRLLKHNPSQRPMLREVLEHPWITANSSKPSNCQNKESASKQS
Experimental: Mobility Shift Assay Protocol
as §1, §2, §3, §4, §5, §6, §7, §8, §9, §10, §11, §12, §13

p38 = target: T9, p38 (Homo sapiens, UniProt Q16539); experiment: as above; format: biochemical; conditions: read-out: % Inhibition p38
T9 construct: purchased Perkin Elmer (ProfilerPro assay kit 1)
Experimental: as §14
Mobility Shift Assay Protocol
as §1, §2, §3, §4, §5, §6
final concentration. […] The
as §7, §8, §9, §10, §11, §12, §13

PRAK = target: T10, PRAK (Homo sapiens, UniProt Q8IW41); experiment: as above; format: biochemical; conditions: read-out: % Inhibition PRAK
T10 construct: purchased Perkin Elmer (ProfilerPro assay kit 1)
T10 sequence (Q8IW41 1-473): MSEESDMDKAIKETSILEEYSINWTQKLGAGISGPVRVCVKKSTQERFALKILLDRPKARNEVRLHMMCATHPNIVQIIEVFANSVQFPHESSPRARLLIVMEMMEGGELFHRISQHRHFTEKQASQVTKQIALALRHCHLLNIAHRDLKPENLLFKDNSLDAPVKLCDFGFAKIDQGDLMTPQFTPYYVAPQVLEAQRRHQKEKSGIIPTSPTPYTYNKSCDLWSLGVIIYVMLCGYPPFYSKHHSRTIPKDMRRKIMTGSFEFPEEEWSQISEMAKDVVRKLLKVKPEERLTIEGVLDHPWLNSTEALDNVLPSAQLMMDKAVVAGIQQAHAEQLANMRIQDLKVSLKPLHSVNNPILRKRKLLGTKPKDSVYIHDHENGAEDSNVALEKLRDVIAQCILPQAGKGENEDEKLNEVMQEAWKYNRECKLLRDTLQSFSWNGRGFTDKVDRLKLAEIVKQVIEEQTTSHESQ
Experimental: as §2, §3, §4, §5, §6
final concentration. […] The
as §7, §8, §9, §10, §11, §12, §13

CK1d = target: T11, CK1d (Homo sapiens, UniProt P48730); experiment: as above; format: biochemical; conditions: read-out: % Inhibition CK1d
T11 construct: purchased Perkin Elmer (ProfilerPro assay kit 1)
T11 sequence (P48730 whole entry): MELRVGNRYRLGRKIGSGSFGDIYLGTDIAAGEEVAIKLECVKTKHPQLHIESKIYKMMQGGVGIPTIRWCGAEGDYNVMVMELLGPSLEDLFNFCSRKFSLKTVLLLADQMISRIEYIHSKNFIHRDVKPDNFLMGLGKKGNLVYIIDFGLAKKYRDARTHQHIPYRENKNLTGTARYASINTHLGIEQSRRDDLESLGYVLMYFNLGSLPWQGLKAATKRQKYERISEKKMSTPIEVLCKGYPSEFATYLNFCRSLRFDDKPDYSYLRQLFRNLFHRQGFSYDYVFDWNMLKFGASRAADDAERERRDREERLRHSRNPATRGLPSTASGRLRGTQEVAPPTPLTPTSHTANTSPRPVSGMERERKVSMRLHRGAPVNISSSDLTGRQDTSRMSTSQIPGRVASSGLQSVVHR
Experimental: as §2, §3, §4, §5, §6, §7, §8, §9, §10, §11, §12, §13

T9 sequence (Q16539 whole entry): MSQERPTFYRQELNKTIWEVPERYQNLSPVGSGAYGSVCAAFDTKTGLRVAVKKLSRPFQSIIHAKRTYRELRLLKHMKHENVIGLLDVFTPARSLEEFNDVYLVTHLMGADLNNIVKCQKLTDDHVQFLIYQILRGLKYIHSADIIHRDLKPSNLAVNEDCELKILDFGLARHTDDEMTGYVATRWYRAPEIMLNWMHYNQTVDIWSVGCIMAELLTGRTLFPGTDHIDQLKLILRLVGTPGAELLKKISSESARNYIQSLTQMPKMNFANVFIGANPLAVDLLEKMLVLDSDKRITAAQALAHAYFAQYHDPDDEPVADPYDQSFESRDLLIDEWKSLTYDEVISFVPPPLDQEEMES
T1 sequence (P00519 whole entry): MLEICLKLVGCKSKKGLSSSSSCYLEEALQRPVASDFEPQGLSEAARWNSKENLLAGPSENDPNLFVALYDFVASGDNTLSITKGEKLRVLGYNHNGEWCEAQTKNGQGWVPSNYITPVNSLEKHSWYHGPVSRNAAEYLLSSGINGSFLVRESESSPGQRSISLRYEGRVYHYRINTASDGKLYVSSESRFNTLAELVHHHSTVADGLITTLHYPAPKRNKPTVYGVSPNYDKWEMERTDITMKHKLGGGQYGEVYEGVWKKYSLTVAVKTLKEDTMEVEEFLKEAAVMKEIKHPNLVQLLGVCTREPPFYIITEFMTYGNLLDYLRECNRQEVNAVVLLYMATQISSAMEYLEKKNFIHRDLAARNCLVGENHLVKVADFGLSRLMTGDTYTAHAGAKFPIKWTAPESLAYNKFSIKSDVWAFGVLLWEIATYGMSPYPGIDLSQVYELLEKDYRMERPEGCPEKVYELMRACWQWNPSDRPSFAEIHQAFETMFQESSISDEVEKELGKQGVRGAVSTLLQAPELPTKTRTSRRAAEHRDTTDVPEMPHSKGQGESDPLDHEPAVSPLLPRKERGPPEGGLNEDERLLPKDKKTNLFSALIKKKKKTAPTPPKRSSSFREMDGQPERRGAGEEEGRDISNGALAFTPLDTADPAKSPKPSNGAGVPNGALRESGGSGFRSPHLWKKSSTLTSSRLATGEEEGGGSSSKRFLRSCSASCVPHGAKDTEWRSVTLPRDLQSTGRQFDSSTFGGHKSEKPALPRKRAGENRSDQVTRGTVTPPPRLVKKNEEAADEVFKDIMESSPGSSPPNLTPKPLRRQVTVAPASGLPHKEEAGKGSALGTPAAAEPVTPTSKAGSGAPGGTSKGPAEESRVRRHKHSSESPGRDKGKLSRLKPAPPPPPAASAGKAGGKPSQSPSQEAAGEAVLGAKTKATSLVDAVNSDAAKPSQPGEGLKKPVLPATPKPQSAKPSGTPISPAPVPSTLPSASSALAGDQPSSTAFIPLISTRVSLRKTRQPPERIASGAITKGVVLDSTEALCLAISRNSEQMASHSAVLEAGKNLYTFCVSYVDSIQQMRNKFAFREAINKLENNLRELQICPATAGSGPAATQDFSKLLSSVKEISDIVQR
T5 sequence (P06239 whole entry): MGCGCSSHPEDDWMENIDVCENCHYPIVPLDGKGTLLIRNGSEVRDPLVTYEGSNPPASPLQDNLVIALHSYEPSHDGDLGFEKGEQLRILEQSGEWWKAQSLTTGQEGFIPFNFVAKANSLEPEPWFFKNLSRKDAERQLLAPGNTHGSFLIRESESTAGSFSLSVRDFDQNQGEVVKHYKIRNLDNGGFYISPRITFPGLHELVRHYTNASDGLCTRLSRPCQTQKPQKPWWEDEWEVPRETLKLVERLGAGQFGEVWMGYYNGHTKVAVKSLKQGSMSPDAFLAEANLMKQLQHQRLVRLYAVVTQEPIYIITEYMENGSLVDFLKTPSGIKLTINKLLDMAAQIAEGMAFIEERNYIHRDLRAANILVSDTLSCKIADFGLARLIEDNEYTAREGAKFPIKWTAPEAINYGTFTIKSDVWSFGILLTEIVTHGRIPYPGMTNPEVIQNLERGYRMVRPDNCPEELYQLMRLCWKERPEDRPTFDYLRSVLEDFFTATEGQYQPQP
T7 sequence (P31751 whole entry): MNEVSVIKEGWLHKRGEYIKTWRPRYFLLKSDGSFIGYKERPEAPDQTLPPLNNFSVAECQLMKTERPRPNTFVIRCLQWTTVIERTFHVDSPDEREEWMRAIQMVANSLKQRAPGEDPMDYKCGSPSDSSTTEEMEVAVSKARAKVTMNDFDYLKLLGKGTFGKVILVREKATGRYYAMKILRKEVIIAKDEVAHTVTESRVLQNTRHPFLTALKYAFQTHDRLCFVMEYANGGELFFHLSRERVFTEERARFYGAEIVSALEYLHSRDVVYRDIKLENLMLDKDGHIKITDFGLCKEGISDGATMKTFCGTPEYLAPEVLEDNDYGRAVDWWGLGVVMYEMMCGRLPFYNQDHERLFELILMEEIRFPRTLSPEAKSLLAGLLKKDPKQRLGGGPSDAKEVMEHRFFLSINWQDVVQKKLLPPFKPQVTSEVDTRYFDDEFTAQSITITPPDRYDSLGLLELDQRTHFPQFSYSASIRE
T3 sequence (P27361 whole entry): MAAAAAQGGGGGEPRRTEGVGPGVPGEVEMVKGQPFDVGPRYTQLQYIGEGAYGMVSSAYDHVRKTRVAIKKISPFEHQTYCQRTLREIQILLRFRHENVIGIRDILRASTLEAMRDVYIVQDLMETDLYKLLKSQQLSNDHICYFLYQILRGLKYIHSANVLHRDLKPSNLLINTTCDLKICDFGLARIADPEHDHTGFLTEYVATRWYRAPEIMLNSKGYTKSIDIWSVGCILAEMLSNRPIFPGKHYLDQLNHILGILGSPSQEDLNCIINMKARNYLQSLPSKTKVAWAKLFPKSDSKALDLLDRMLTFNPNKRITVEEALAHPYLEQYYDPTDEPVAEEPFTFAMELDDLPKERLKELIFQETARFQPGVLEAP

| Compound | inhibition at 30 µM (ABL) [%] | inhibition at 30 µM (CHK1) [%] | inhibition at 30 µM (Erk1) [%] | inhibition at 30 µM (LCK) [%] | Ki (MPS1 [2]) [µM] | MPS1 ligand efficiency (LE) (MPS1 [2]) | inhibition at 30 µM (PKA) [%] | inhibition at 30 µM (AKT2) [%] | inhibition at 30 µM (AurA) [%] | inhibition at 100 µM (ABL) [%] | inhibition at 100 µM (CHK1) [%] | inhibition at 100 µM (Erk1) [%] | inhibition at 100 µM (LCK) [%] | inhibition at 100 µM (PKA) [%] | inhibition at 100 µM (AKT2) [%] | inhibition at 100 µM (AurA) [%] | inhibition at 100 µM (p38) [%] | inhibition at 100 µM (PRAK) [%] | inhibition at 100 µM (CK1d) [%] | inhibition at 100 µM (MPS1 [1]; compound at 100 µM) [%] | also measured |
| --- | --- | --- | --- | --- | --- | --- | --- | --- | --- | --- | --- | --- | --- | --- | --- | --- | --- | --- | --- | --- | --- |
| CN1CCN(c2ccc(C(=O)Nc3cc(-c4ccncc4)c[nH]c3=O)cc2)CC1 [Compound 22] | 96 | 84 | 0 | 97 | 4.8 | 0.25 | 0 | 13 | 92 | – | – | – | – | – | – | – | – | – | – | – | inhibition at 30 µM (MPS1 [1]): 88%; inhibition at 30 µM (p38): 6%; inhibition at 30 µM (PRAK): 10%; inhibition at 30 µM (CK1d): 31% |
| Nc1ccc[nH]c1=O [Compound 1, 3-aminopyridin-2-one] | – | – | – | – | > 1000 | – | – | – | – | 5 | 37 | 9 | 4 | 0 | 77 | 58 | 9 | 19 | 45 | – | inhibition at 100 µM (MPS1 [1]): 0% |
| COc1ncc(-c2ccncc2)cc1N [Compound 5, 6-Methoxy-3,4′-bipyridin-5-amine] | – | – | – | – | 91.2 | 0.37 | – | – | – | 26 | 1 | 20 | 7 | 52 | 4 | 46 | 0 | 1 | 38 | 41 | – |
| Cc1nc(O)c(N)cc1-c1ccncc1 [Compound 15, 3-Amino-6-methyl-5-(pyridin-4-yl)pyridin-2-one] | – | – | – | – | > 100 | – | – | – | – | 5 | 4 | 11 | 4 | 0 | 17 | 49 | 8 | 24 | 33 | 20 | – |
| Nc1cc(-c2ccnc3ccccc23)c[nH]c1=O [Compound 6] | – | – | – | – | 30.2 | 0.34 | – | – | – | 66 | 26 | 22 | 40 | 48 | 9 | 62 | 0 | 15 | 37 | 69 | – |
| O=C(Nc1cc(-c2ccnc(NC3CC3)n2)c[nH]c1=O)c1ccccc1 [Compound 24] | 88 | 0 | 33 | 75 | 3.2 | 0.29 | 75 | 91 | 99 | – | – | – | – | – | – | – | – | – | – | – | inhibition at 30 µM (MPS1 [1]; compound at 30 µM): 76%; inhibition at 30 µM (p38): 36%; inhibition at 30 µM (PRAK): 71%; inhibition at 30 µM (CK1d): 78% |
| Nc1cc(-c2ccnc(NC3CC3)n2)c[nH]c1=O [Compound 8] | – | – | – | – | 11 | 0.37 | – | – | – | 43 | 26 | 46 | 38 | 8 | 18 | 87 | 12 | 24 | 63 | 87 | – |
| O=C(Nc1cc(-c2ccncc2)c[nH]c1=O)c1ccccc1 [Compound 16, N-(2-Oxo-5-(pyridin-4-yl)-1,2-dihydropyridin-3-yl)benzamide] | 55 | 24 | 12 | 45 | 5.4 | 0.33 | 0 | 4 | 59 | – | – | – | – | – | – | – | – | – | – | – | inhibition at 30 µM (MPS1 [1]; compound at 30 µM): 62%; fold increase in inhibitory activity against MPS1 relative to compound 3 (MPS1 [2]; from Ki values, Table 1 and Table 2): 15 fold; inhibition at 30 µM (p38): 4%; inhibition at 30 µM (PRAK): 1%; inhibition at 30 µM (CK1d): 79% |
| Cn1cc(-c2c[nH]c(=O)c(N)c2)cn1 [Compound 2, 3-Amino-5-(1-methyl-1H-pyrazol-4-yl)pyridin-2(1H)-one] | – | – | – | – | 94.7 | 0.39 | – | – | – | 58 | 77 | 62 | 11 | 66 | 97 | 100 | 39 | 99 | 72 | 41 | – |
| CNc1nccc(-c2c[nH]c(=O)c(N)c2)n1 [Compound 7] | – | – | – | – | 25.6 | 0.39 | – | – | – | 67 | 79 | 52 | 55 | 81 | 93 | 98 | 25 | 88 | 79 | 71 | – |
